Source: patent US7396837B2, “Antitumoral analogs of lamellarins” (Pharma Mar, S.A.U., priority 2002, dated 2008)

Legend:
Format in all cases: cell-based
[1] = system: K-562; test: SRB colorimetric cell growth inhibition assay, K-562; conditions: Homo sapiens, K562, K-562; for GI50: GI=growth inhibition, read-out: GI50 K-562; for CC50: cell killing (cytotoxic effect), read-out: LC50 K-562; for IC (TGI): total growth inhibition (cytostatic effect), read-out: TGI K-562
Description: (§1) The finality of these assays is to interrupt the growth of an “in vitro” tumor cell culture by means a continued exhibition of the cells to the sample to be testing.
(§2) A colorimetric type of assay, using sulforhodamine B (SRB) reaction has been adapted for a quantitative measurement of cell growth and viability (following the technique described by P. A. Skehan, et al., J. Natl. Cancer Inst. 1990, 82, 1107-1112).
(§3) This form of assay employs 96 well cell culture microplates of 9 mm diameter (T. Mosmann et al., J. of Immunological Methods 1983, 65, 55-63; G. T. Faircloth et al., J. of Tissue and Culture Methods 1988, 11, 201-205).
(§4) Most of the cell lines are obtained from American Type Culture Collection (ATCC) derived from different human cancer types.
(§5) The values for mean +/− SD of data from triplicate wells are calculated. Some parameters for cellular responses can be calculated: GI=growth inhibition, TGI=total growth inhibition (cytostatic effect) and LC=cell killing (cytotoxic effect).

[2] = system: A-549; test: SRB colorimetric cell growth inhibition assay, A-549; conditions: Homo sapiens, A549, A-549; for GI50: GI=growth inhibition, read-out: GI50 A-549; for CC50: cell killing (cytotoxic effect), read-out: LC50 A-549; for IC (TGI): total growth inhibition (cytostatic effect), read-out: TGI A-549
Procedure, shortened: (§6)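 In this cytotoxicity screen, compound stays in contact with the cultured human cancer cells without washout; sulforhodamine B binding gives the measure of cell number, and endpoints separate growth inhibition from cytostasis (TGI) and killing (LC).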

[3] = system: HT-29; test: SRB colorimetric cell growth inhibition assay, HT-29; conditions: Homo sapiens, HT-29, HT-29; for GI50: GI=growth inhibition, read-out: GI50 HT-29; for CC50: cell killing (cytotoxic effect), read-out: LC50 HT-29; for IC (TGI): total growth inhibition (cytostatic effect), read-out: TGI HT-29
Procedure, shortened: as §6

[4] = system: LoVo; test: SRB colorimetric cell growth inhibition assay, LoVo; conditions: Homo sapiens, LoVo; for GI50: GI=growth inhibition, read-out: GI50 LOVO; for CC50: cell killing (cytotoxic effect), read-out: LC50 LOVO; for IC (TGI): total growth inhibition (cytostatic effect), read-out: TGI LOVO
Procedure, shortened: as §6

[5] = system: LoVo-Dox; test: SRB colorimetric cell growth inhibition assay, LoVo-Dox (MDR); conditions: Homo sapiens, LOVO-DOX; for GI50: GI=growth inhibition, read-out: GI50 LOVO-DOX; for CC50: cell killing (cytotoxic effect), read-out: LC50 LOVO-DOX; for IC (TGI): total growth inhibition (cytostatic effect), read-out: TGI LOVO-DOX
Procedure, shortened: as §6

[6] = system: DU-145; test: SRB colorimetric cell growth inhibition assay, DU-145; conditions: Homo sapiens, DU-145, DU-145; for GI50: GI=growth inhibition, read-out: GI50 DU-145; for CC50: cell killing (cytotoxic effect), read-out: LC50 DU-145; for IC (TGI): total growth inhibition (cytostatic effect), read-out: TGI DU-145
Procedure, shortened: as §6

[7] = system: LNCaP; test: SRB colorimetric cell growth inhibition assay, LNCaP; conditions: Homo sapiens, LNCaP, LN-caP; for GI50: GI=growth inhibition, read-out: GI50 LN-caP; for CC50: cell killing (cytotoxic effect), read-out: LC50 LN-caP; for IC (TGI): total growth inhibition (cytostatic effect), read-out: TGI LN-caP
Description: as §1, §2, §3, §4, §5

[8] = system: SK-BR-3; test: SRB colorimetric cell growth inhibition assay, SK-BR-3; conditions: Homo sapiens, SK-BR-3, SK-BR-3; for GI50: GI=growth inhibition, read-out: GI50 SK-BR-3; for CC50: cell killing (cytotoxic effect), read-out: LC50 SK-BR-3; for IC (TGI): total growth inhibition (cytostatic effect), read-out: TGI SK-BR-3
Procedure, shortened: as §6

[9] = system: IGROV; test: SRB colorimetric cell growth inhibition assay, IGROV; conditions: Homo sapiens, IGROV; for GI50: GI=growth inhibition, read-out: GI50 IGROV; for CC50: cell killing (cytotoxic effect), read-out: LC50 IGROV; for IC (TGI): total growth inhibition (cytostatic effect), read-out: TGI IGROV
Procedure, shortened: as §6

[10] = system: IGROV-ET; test: SRB colorimetric cell growth inhibition assay, IGROV-ET (ET-743 resistant); conditions: Homo sapiens, IGROV-ET; for GI50: GI=growth inhibition, read-out: GI50 IGROV-ET; for CC50: cell killing (cytotoxic effect), read-out: LC50 IGROV-ET; for IC (TGI): total growth inhibition (cytostatic effect), read-out: TGI IGROV-ET
Procedure, shortened: as §6

[11] = system: HeLa; test: SRB colorimetric cell growth inhibition assay, HeLa; conditions: Homo sapiens, HeLa; for GI50: GI=growth inhibition, read-out: GI50 HELA; for CC50: cell killing (cytotoxic effect), read-out: LC50 HELA; for IC (TGI): total growth inhibition (cytostatic effect), read-out: TGI HELA
Procedure, shortened: as §6

[12] = system: HeLa-APL; test: SRB colorimetric cell growth inhibition assay, HeLa-APL (aplidine resistant); conditions: Homo sapiens, HELA-APL; for GI50: GI=growth inhibition, read-out: GI50 HELA-APL; for CC50: cell killing (cytotoxic effect), read-out: LC50 HELA-APL; for IC (TGI): total growth inhibition (cytostatic effect), read-out: TGI HELA-APL
Procedure, shortened: as §6

[13] = system: PANC-1; test: SRB colorimetric cell growth inhibition assay, PANC-1; conditions: Homo sapiens, PANC-1, PANC-1; for GI50: GI=growth inhibition, read-out: GI50 PANC-1; for CC50: cell killing (cytotoxic effect), read-out: LC50 PANC-1; for IC (TGI): total growth inhibition (cytostatic effect), read-out: TGI PANC-1
Procedure, shortened: as §6

[14] = system: SK-MEL-28; test: SRB colorimetric cell growth inhibition assay, SK-MEL-28; conditions: Homo sapiens, SK-MEL-28, MEL-28; for GI50: GI=growth inhibition, read-out: GI50 MEL-28; for CC50: cell killing (cytotoxic effect), read-out: LC50 MEL-28; for IC (TGI): total growth inhibition (cytostatic effect), read-out: TGI MEL-28
Procedure, shortened: as §6

| SMILES | GI50 [2] [µM] | CC50 [2] [µM] | IC (TGI) [2] [µM] | GI50 [3] [µM] | CC50 [3] [µM] | IC (TGI) [3] [µM] | GI50 [4] [µM] | CC50 [4] [µM] | IC (TGI) [4] [µM] | GI50 [5] [µM] | CC50 [5] [µM] | IC (TGI) [5] [µM] | GI50 [6] [µM] | CC50 [6] [µM] | IC (TGI) [6] [µM] | GI50 [7] [µM] | CC50 [7] [µM] | IC (TGI) [7] [µM] | GI50 [9] [µM] | CC50 [9] [µM] | further results |
| --- | --- | --- | --- | --- | --- | --- | --- | --- | --- | --- | --- | --- | --- | --- | --- | --- | --- | --- | --- | --- | --- |
| COc1cc(-c2c3n(c4c(=O)[nH]c5cc(O)c(OC)cc5c24)CCc2cc(O)c(OC)cc2-3)ccc1O [Compound 4] | 0.543 | 10 | 1.21 | 2.5 | 14.6 | 6.03 | 0.468 | 4.36 | 1.08 | 2 | 17.8 | 5.95 | 0.218 | 2.14 | 0.667 | 0.332 | 1.85 | 0.785 | 0.402 | 11.3 | GI50 [1]: 0.396 µM; CC50 [1]: 4.44 µM; IC (TGI) [1]: 0.937 µM; GI50 [8]: 0.338 µM; CC50 [8]: 1.47 µM; IC (TGI) [8]: 0.703 µM; IC (TGI) [9]: 2 µM; GI50 [10]: 0.599 µM; CC50 [10]: 13.1 µM; IC (TGI) [10]: 1.64 µM; GI50 [11]: 0.338 µM; CC50 [11]: 1.39 µM; IC (TGI) [11]: 0.685 µM; GI50 [12]: 0.238 µM; CC50 [12]: 1.95 µM; IC (TGI) [12]: 0.681 µM; GI50 [13]: 0.48 µM; CC50 [13]: 5.99 µM; IC (TGI) [13]: 1.34 µM |
| CC[C@H](C)[C@H](N)C(=O)Oc1ccc(-c2c3c4cc(OC)c(OC(=O)[C@@H](N)[C@@H](C)CC)cc4oc(=O)c3n3ccc4cc(OC(=O)[C@@H](N)[C@@H](C)CC)c(OC)cc4c23)cc1OC [Compound 209] | 0.0428 | 0.713 | 0.195 | 3.38 | 10.5 | 9.99 | 0.119 | 0.527 | 0.251 | 0.137 | 2.6 | 0.488 | 0.00429 | 0.0404 | 0.0119 | 0.0158 | 0.233 | 0.056 | 0.0337 | 0.477 | GI50 [14]: 0.0328 µM; CC50 [14]: 0.48 µM; IC (TGI) [14]: 0.0839 µM; GI50 [8]: 0.0478 µM; CC50 [8]: 0.101 µM; IC (TGI) [8]: 0.0695 µM; IC (TGI) [9]: 0.124 µM; GI50 [10]: 0.0317 µM; CC50 [10]: 0.345 µM; IC (TGI) [10]: 0.0701 µM; GI50 [11]: 0.0662 µM; CC50 [11]: 1.01 µM; IC (TGI) [11]: 0.269 µM; GI50 [12]: 0.0827 µM; CC50 [12]: 0.517 µM; IC (TGI) [12]: 0.221 µM; GI50 [13]: 0.0674 µM; CC50 [13]: 1.03 µM; IC (TGI) [13]: 0.282 µM |
| COc1cc2c(cc1O)oc(=O)c1c2c(-c2ccc(OC)c(OC)c2)c2c3cc(OC)c(O)cc3ccn21 [Compound 233] | 0.312 | 19.5 | 2.06 | 19.5 | 19.5 | 19.5 | 0.545 | 19.5 | 1.31 | 1.05 | 19.5 | 15.4 | 0.0783 | 19.5 | 0.18 | 0.126 | 3.72 | 0.557 | 0.0499 | 19.5 | GI50 [1]: 0.0958 µM; CC50 [1]: 8.61 µM; IC (TGI) [1]: 1.09 µM; GI50 [14]: 0.169 µM; CC50 [14]: 19.5 µM; IC (TGI) [14]: 4.75 µM; IC (TGI) [9]: 0.142 µM; GI50 [10]: 0.107 µM; CC50 [10]: 19.5 µM; IC (TGI) [10]: 0.721 µM; GI50 [11]: 0.191 µM; CC50 [11]: 16 µM; IC (TGI) [11]: 3.82 µM; GI50 [12]: 0.417 µM; CC50 [12]: 14.3 µM; IC (TGI) [12]: 3.15 µM; GI50 [13]: 0.341 µM; CC50 [13]: 19.5 µM; IC (TGI) [13]: 19.5 µM |
